{"source": "patent US20110130421A1", "about": "“Methods and Compositions for the Treatment of Chronic Renal Hypertension” (Georgetown University, priority 2009, published 2011)", "key": {"[1]": {"tested_on": "chronic 2K,1C Goldblatt rats", "experiment": "Acute interventions in anesthetized chronic 2K,1C rats twelve months after clipping: MAP, cortical blood flow and renal pO2 of the clipped kidney", "format": "in vivo, Sprague-Dawley rats", "protocol": "(§1) As described in Welch et al., Hypertension, 41:692-696 (2003) and Palm et al., Hypertension, 51:345-351 (2008), young male Sprague-Dawley rats (80-100 g) were anesthetized with isoflurane (0.5-1.5%). A silver clip (0.2 mm) was placed around the left renal artery (2K,1C). Age-matched rats were used as controls (sham).\n(§2) All rats received hydralazine+hydrochlorothiazide+reserpine (HHR; 30+10+0.2 mg·kg^−1·day^−1) in the drinking water as described in Welch et al., Kidney Int., 63:202-208 (2003) in order to maximize survival of the clipped rats. The HHR treatment was discontinued 14 days prior to undergoing the protocol described hereinafter.\nTwelve months after clipping, all rats were anesthetized with Inactin (100 mg·kg^−1 i.p.; Sigma-Aldrich, St. Louis, Mo.), and an endotracheal tube was inserted for spontaneous respiration. Rats were prepared according to the protocol described in Palm et al., Hypertension, 51:345-351 (2008). Briefly, the left femoral artery was catheterized for monitoring mean arterial blood pressure (MAP) and the left femoral vein for infusion of saline (5 ml·kg bw^−1·h^−1). The left kidney was immobilized in a plastic cup while renal cortical pO2 and cortical blood flow (CBF) were measured with O2 microelectrodes (Unisense, Aarhus, Denmark) and laser-Doppler needle probes (Transonic Systems Inc, Ithaca, N.Y.) as described in Palm et al., Diabetologia, 46:1153-1160 (2003); Palm et al., Hypertension, 51:345-351 (2008); and Liss et al., Pflügers Arch., 434:705-711 (1997).\nMeasurements in 2K,1C rats were made before and after injections of PD-123,319 (1 mg·kg bw^−1 bolus+1 mg·kg bw^−1·h^−1; Sigma Aldrich) followed 30 minutes later by either enalaprilat (0.3 mg·kg bw^−1 bolus+0.3 mg·kg bw^−l·h^−1; Novaplus 1.25 mg·m^−1; Baxter Healthcare Corporation, Deerfield, Ill.) or tempol (174 μmmol·kg bw^−1 bolus+174 μmmol·kg bw^−1·h^−1; Sigma Aldrich) followed 30 minutes later by enalaprilat or candesartan (1 mg·kg bw^−1 bolus+1 mg·kg bw^−1·h^−1; provided by Astra Zeneca, Södertälje Sweden) followed after 30 minutes by enalaprilat. […] See e.g., Duke et al., Br. J. Pharmacol., 144:486-492 (2005).\nThe data in Example 1 was analyzed using ANOVA for multiple data sets and Student's t-test for paired comparisons. When appropriate, this was followed by Dunnett's post hoc. […] The Mann-Whitney test was used for Western blot densitometry data. For all comparisons, p<0.05 was considered statistically significant. All values are expressed as mean±SEM."}, "normal rats": {"tested_on": "normal rats", "conditions": "cited from earlier work"}, "sham rats": {"tested_on": "sham rats", "experiment": "Acute interventions in anesthetized age-matched sham rats: MAP, cortical blood flow and renal pO2", "format": "in vivo, Sprague-Dawley rats", "protocol": "as §1, §2\nTwelve months after clipping, all rats were anesthetized with Inactin (100 mg·kg^−1 i.p.; Sigma-Aldrich, St. Louis, Mo.), and an endotracheal tube was inserted for spontaneous respiration. […] The left kidney was immobilized in a plastic cup while renal cortical pO2 and cortical blood flow (CBF) were measured with O2 microelectrodes (Unisense, Aarhus, Denmark) and laser-Doppler needle probes (Transonic Systems Inc, Ithaca, N.Y.) as described in Palm et al., Diabetologia, 46:1153-1160 (2003); Palm et al., Hypertension, 51:345-351 (2008); and Liss et al., Pflügers Arch., 434:705-711 (1997). […]\nThe data in Example 1 was analyzed using ANOVA for multiple data sets and Student's t-test for paired comparisons. […] All values are expressed as mean±SEM."}, "[2]": {"tested_on": "2K,1C Goldblatt rats in the early stages of renal hypertension", "conditions": "early stage 2K,1C Goldblatt rats; prolonged administration; cited from earlier work"}, "[3]": {"conditions": "reported, in contrast to early stage 2K,1C rats; similar results in a hypercholesterolemic pig model; cited from earlier work"}, "essential hypertension": {"tested_on": "essential hypertension", "conditions": "cited from earlier work"}, "[4]": {"conditions": "solutions containing Tempol; cited from earlier work"}, "[5]": {"conditions": "acute i.v. bolus + infusion of the agent alone"}, "[6]": {"conditions": "clipped kidney, agent alone, listed as tempol"}}, "note": "“Also recorded” adds a separate entry of the source.", "data": [{"smiles": "Cc1cc(Cn2cnc3c2C[C@@H](C(=O)O)N(C(=O)C(c2ccccc2)c2ccccc2)C3)ccc1N(C)C", "note": "[PD-123,319, reference compound]", "values": [{"measurement": "mean arterial blood pressure (MAP)", "setting": "[1]; [5]", "result": "unaffected"}, {"measurement": "renal cortical blood flow (CBF)", "setting": "[1]; clipped kidney, agent alone", "result": "Neither candesartan nor PD-123,319 alone changed CBF significantly"}, {"measurement": "mean arterial pressure or kidney function", "setting": "normal rats", "result": "has not been found to change mean arterial pressure or kidney function"}]}, {"smiles": "CC1(C)CC(O)CC(C)(C)N1[O]", "note": "[Tempol, 4-hydroxy-2,2,6,6-tetramethyl-1-piperidine-1-oxyl]", "values": [{"measurement": "mean arterial blood pressure (MAP)", "setting": "[1]; [5]", "result": "lowers MAP; also recorded: more effective in lowering MAP"}, {"measurement": "mean arterial blood pressure (MAP)", "setting": "[1]; acute i.v. bolus + infusion of the agent alone, listed as tempol", "result": "significantly more effective"}, {"measurement": "renal cortical blood flow (CBF)", "setting": "[1]; clipped kidney, agent alone", "result": "effectively increases both the cortical blood flow and the tissue pO2"}, {"measurement": "renal cortical pO2", "setting": "[1]; clipped kidney, agent alone", "result": "effectively increases both the cortical blood flow and the tissue pO2"}, {"measurement": "renal medullary pO2", "setting": "[1]; clipped kidney, agent alone", "result": "effectively increases both the cortical blood flow and the tissue pO2"}, {"measurement": "renal cortical blood flow (CBF)", "setting": "[1]; [6]", "result": "increased"}, {"measurement": "renal cortical pO2", "setting": "[1]; [6]", "result": "increased the cortical pO2"}, {"measurement": "renal medullary pO2", "setting": "[1]; [6]", "result": "increased the medullary pO2"}, {"measurement": "renal cortical pO2", "setting": "sham rats", "result": "not effective"}, {"measurement": "glomerular filtration rate (GFR)", "setting": "[2]", "result": "improved the glomerular filtration rate (GFR)"}, {"measurement": "mean arterial pressure (MAP)", "setting": "[2]", "result": "reduced mean arterial pressure (MAP)"}, {"measurement": "oxygen tension (pO2) of the clipped kidney", "setting": "[2]", "result": "improved oxygen tension (pO2) of the clipped kidney"}, {"measurement": "renal blood flow", "setting": "[2]", "result": "improved renal blood flow"}, {"measurement": "renal blood flow, cortical perfusion or GFR", "setting": "[3]", "result": "failed to improve renal blood flow, cortical perfusion or GFR"}, {"measurement": "anti-hypertensive effect", "setting": "essential hypertension", "result": "demonstrated anti-hypertensive effect"}, {"measurement": "stability of solutions left in sunlight", "setting": "[4]", "result": "discolor when left in sunlight"}]}, {"smiles": "C[C@H](N[C@@H](CCc1ccccc1)C(=O)O)C(=O)N1CCC[C@H]1C(=O)O", "note": "[enalaprilat, reference compound]", "values": [{"measurement": "renal cortical blood flow (CBF)", "setting": "[1]; enalaprilat after tempol", "result": "did not change further"}, {"measurement": "renal medullary pO2", "setting": "[1]; enalaprilat after tempol", "result": "did not change the medullary pO2 further"}, {"measurement": "renal cortical blood flow (CBF)", "setting": "[1]; enalaprilat following candesartan", "result": "reduced significantly"}, {"measurement": "mean arterial blood pressure (MAP)", "setting": "[1]; enalaprilat given 30 minutes after PD-123,319", "result": "did reduce the MAP"}, {"measurement": "mean arterial blood pressure (MAP)", "setting": "[1]; enalaprilat given 30 minutes after candesartan", "result": "did not produce a further fall in MAP"}, {"measurement": "mean arterial blood pressure (MAP)", "setting": "[1]; enalaprilat given 30 minutes after tempol", "result": "did not produce a further fall in MAP"}, {"measurement": "renal cortical pO2", "setting": "[1]; tempol followed by enalaprilat", "result": "not changed significantly"}, {"measurement": "renal cortical pO2", "setting": "sham rats", "result": "increased cortical pO2"}]}]}
